In the NIST ThermoML archive (doi:10.1021/je3002255):
Numbers after ± are expanded uncertainties.

Conditions: Liquid, Ebulliometric method (Recirculating still)

## CCC(C)O (configuration not stated) [butan-2-ol]
359.26 K
  vapor or sublimation pressure: 60 ± 1.4 kPa
366.45 K
  vapor or sublimation pressure: 80 ± 1.8 kPa
372.21 K
  vapor or sublimation pressure: 100 ± 2.4 kPa

## CCCOCCO [2-propoxyethanol]
406.13 K
  vapor or sublimation pressure: 60 ± 1.4 kPa
406.15 K
  vapor or sublimation pressure: 60 ± 1.4 kPa
415.28 K
  vapor or sublimation pressure: 80 ± 2 kPa
415.3 K
  vapor or sublimation pressure: 80 ± 2 kPa
422.73 K
  vapor or sublimation pressure: 100 ± 2.5 kPa
422.75 K
  vapor or sublimation pressure: 100 ± 2.5 kPa

## CC(C)O [propan-2-ol]
342.87 K
  vapor or sublimation pressure: 60 ± 1.4 kPa
349.6 K
  vapor or sublimation pressure: 80 ± 1.8 kPa
355.06 K
  vapor or sublimation pressure: 100 ± 2.4 kPa
